In PubChem BioAssay AID2060902 (Molecular Pharmacology Branch, DTP, NCI, 2025):

System: 485368-065-R3-J5-PDC spheroids with HUVEC/MSC, viability
Test: Anticancer human tumor 485368-065-R3-J5-PDC patient-derived pancreatic carcinoma cell line growth inhibition [RAS]
Details: for IC50: curve of first compound; for viability, T/C: stronger effect = lower value
In short: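 Tumour cells grown as complex spheroids with HUVEC endothelial cells and mesenchymal stem cells, treated with RAS pathway inhibitor combinations. Each agent spans half-log steps from near clinical Cmax, or 10 microM where Cmax is unknown.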

[1] = second compound 0.000949 µM, first compound 0.0316 µM
[2] = second compound 0.000949 µM, first compound 0.1 µM
[3] = second compound 0.000949 µM, first compound 0.316 µM
[4] = second compound 0.000949 µM, first compound 1 µM
[5] = second compound 0.000949 µM, first compound 3.16 µM
[6] = second compound 0.000949 µM, first compound 10 µM
[7] = second compound 0.003 µM, first compound 0.0316 µM
[8] = second compound 0.003 µM, first compound 0.1 µM
[9] = second compound 0.003 µM, first compound 0.316 µM
[10] = second compound 0.003 µM, first compound 1 µM
[11] = second compound 0.003 µM, first compound 3.16 µM
[12] = second compound 0.003 µM, first compound 10 µM
[13] = second compound 0.00949 µM, first compound 0.0316 µM
[14] = second compound 0.00949 µM, first compound 0.1 µM
[15] = second compound 0.00949 µM, first compound 0.316 µM
[16] = second compound 0.00949 µM, first compound 1 µM
[17] = second compound 0.00949 µM, first compound 3.16 µM
[18] = second compound 0.00949 µM, first compound 10 µM
[19] = second compound 0.03 µM, first compound 0.0316 µM
[20] = second compound 0.03 µM, first compound 0.1 µM
[21] = second compound 0.03 µM, first compound 0.316 µM
[22] = second compound 0.03 µM, first compound 1 µM
[23] = second compound 0.03 µM, first compound 3.16 µM
[24] = second compound 0.03 µM, first compound 10 µM
[25] = second compound 0.0949 µM, first compound 0.0316 µM
[26] = second compound 0.0949 µM, first compound 0.1 µM
[27] = second compound 0.0949 µM, first compound 0.316 µM
[28] = second compound 0.0949 µM, first compound 1 µM
[29] = second compound 0.0949 µM, first compound 3.16 µM
[30] = second compound 0.0949 µM, first compound 10 µM
[31] = second compound 0.3 µM, first compound 0.0316 µM
[32] = second compound 0.3 µM, first compound 0.1 µM
[33] = second compound 0.3 µM, first compound 0.316 µM
[34] = second compound 0.3 µM, first compound 1 µM
[35] = second compound 0.3 µM, first compound 3.16 µM
[36] = second compound 0.3 µM, first compound 10 µM
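Note: spheroids exposed to agents for seven days before readout.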

CC(C)NCC(C(=O)N1CCN(c2ncnc3c2C(C)CC3O)CC1)c1ccc(Cl)cc1 (stereo not drawn) + CCn1c(-c2cc(N3CCN(C)CC3)cnc2C(C)OC)c2c3cc(ccc31)-c1csc(n1)CC(NC(=O)C1CC1C)C(=O)N1CCCC(N1)C(=O)OCC(C)(C)C2
IC50 (second compound 0.000949 µM): < 31.6 nM | IC50 (second compound 0.003 µM): < 31.6 nM | IC50 (second compound 0.00949 µM): < 31.6 nM | IC50 (second compound 0.03 µM): < 31.6 nM | IC50 (second compound 0.0949 µM): < 31.6 nM | IC50 (second compound 0.3 µM): < 31.6 nM | viability, T/C [1]: 40.8% | viability, T/C [2]: 36.3% | viability, T/C [3]: 29.3% | viability, T/C [4]: 23.7% | viability, T/C [5]: 18.2% | viability, T/C [6]: 16.4% | viability, T/C [7]: 22.7% | viability, T/C [8]: 21.8% | viability, T/C [9]: 17.9% | viability, T/C [10]: 14.6% | viability, T/C [11]: 11.9% | viability, T/C [12]: 8.84% | viability, T/C [13]: 15.5% | viability, T/C [14]: 16.6% | viability, T/C [15]: 15.6% | viability, T/C [16]: 14% | viability, T/C [17]: 10.2% | viability, T/C [18]: 7.3% | viability, T/C [19]: 11.7% | viability, T/C [20]: 13.6% | viability, T/C [21]: 12.6% | viability, T/C [22]: 10.5% | viability, T/C [23]: 7.29% | viability, T/C [24]: 6.75% | viability, T/C [25]: 10.1% | viability, T/C [26]: 9.26% | viability, T/C [27]: 7.76% | viability, T/C [28]: 7.82% | viability, T/C [29]: 7.22% | viability, T/C [30]: 6.12% | viability, T/C [31]: 8.98% | viability, T/C [32]: 7.69% | viability, T/C [33]: 8.06% | viability, T/C [34]: 7.28% | viability, T/C [35]: 6.22% | viability, T/C [36]: 5.13%

CC(C)n1nc(-c2ccc3oc(N)nc3c2)c2c(N)ncnc21 + CCn1c(-c2cc(N3CCN(C)CC3)cnc2C(C)OC)c2c3cc(ccc31)-c1csc(n1)CC(NC(=O)C1CC1C)C(=O)N1CCCC(N1)C(=O)OCC(C)(C)C2
IC50 (second compound 0.000949 µM): < 0.316 nM | IC50 (second compound 0.003 µM): < 0.316 nM | IC50 (second compound 0.00949 µM): < 0.316 nM | IC50 (second compound 0.03 µM): < 0.316 nM | IC50 (second compound 0.0949 µM): < 0.316 nM | IC50 (second compound 0.3 µM): < 0.316 nM | viability, T/C (second compound 0.000949 µM, first compound 0.000316 µM): 37.1% | viability, T/C (second compound 0.000949 µM, first compound 0.001 µM): 33.2% | viability, T/C (second compound 0.000949 µM, first compound 0.00316 µM): 25.4% | viability, T/C (second compound 0.000949 µM, first compound 0.01 µM): 25.5% | viability, T/C [1]: 16.9% | viability, T/C [2]: 14.4% | viability, T/C (second compound 0.003 µM, first compound 0.000316 µM): 23.3% | viability, T/C (second compound 0.003 µM, first compound 0.001 µM): 20.4% | viability, T/C (second compound 0.003 µM, first compound 0.00316 µM): 18.3% | viability, T/C (second compound 0.003 µM, first compound 0.01 µM): 15.1% | viability, T/C [7]: 11.4% | viability, T/C [8]: 8.13% | viability, T/C (second compound 0.00949 µM, first compound 0.000316 µM): 19.9% | viability, T/C (second compound 0.00949 µM, first compound 0.001 µM): 17.6% | viability, T/C (second compound 0.00949 µM, first compound 0.00316 µM): 15.4% | viability, T/C (second compound 0.00949 µM, first compound 0.01 µM): 11.2% | viability, T/C [13]: 7.74% | viability, T/C [14]: 7.71% | viability, T/C (second compound 0.03 µM, first compound 0.000316 µM): 13.6% | viability, T/C (second compound 0.03 µM, first compound 0.001 µM): 12.3% | viability, T/C (second compound 0.03 µM, first compound 0.00316 µM): 11.5% | viability, T/C (second compound 0.03 µM, first compound 0.01 µM): 10.1% | viability, T/C [19]: 8.37% | viability, T/C [20]: 6.86% | viability, T/C (second compound 0.0949 µM, first compound 0.000316 µM): 9.34% | viability, T/C (second compound 0.0949 µM, first compound 0.001 µM): 9.41% | viability, T/C (second compound 0.0949 µM, first compound 0.00316 µM): 9.4% | viability, T/C (second compound 0.0949 µM, first compound 0.01 µM): 8.96% | viability, T/C [25]: 8.01% | viability, T/C [26]: 7.66% | viability, T/C (second compound 0.3 µM, first compound 0.000316 µM): 8.85% | viability, T/C (second compound 0.3 µM, first compound 0.001 µM): 9.23% | viability, T/C (second compound 0.3 µM, first compound 0.00316 µM): 9.13% | viability, T/C (second compound 0.3 µM, first compound 0.01 µM): 7.72% | viability, T/C [31]: 8.58% | viability, T/C [32]: 6.19%

CC(Nc1ccc2c(c1)OCCn1cc(N3C(=O)OCC3C(F)F)nc1-2)C(N)=O (stereo not drawn) + CCn1c(-c2cc(N3CCN(C)CC3)cnc2C(C)OC)c2c3cc(ccc31)-c1csc(n1)CC(NC(=O)C1CC1C)C(=O)N1CCCC(N1)C(=O)OCC(C)(C)C2
IC50 (second compound 0.000949 µM): < 31.6 nM | IC50 (second compound 0.003 µM): < 31.6 nM | IC50 (second compound 0.00949 µM): < 31.6 nM | IC50 (second compound 0.03 µM): < 31.6 nM | IC50 (second compound 0.0949 µM): < 31.6 nM | IC50 (second compound 0.3 µM): < 31.6 nM | viability, T/C [1]: 26.2% | viability, T/C [2]: 23.7% | viability, T/C [3]: 24.2% | viability, T/C [4]: 18.2% | viability, T/C [5]: 17.5% | viability, T/C [6]: 11.3% | viability, T/C [7]: 15% | viability, T/C [8]: 13.3% | viability, T/C [9]: 12.6% | viability, T/C [10]: 11.2% | viability, T/C [11]: 10.1% | viability, T/C [12]: 7.35% | viability, T/C [13]: 10.8% | viability, T/C [14]: 11.4% | viability, T/C [15]: 9.57% | viability, T/C [16]: 9.69% | viability, T/C [17]: 9.37% | viability, T/C [18]: 6.07% | viability, T/C [19]: 10.3% | viability, T/C [20]: 9.36% | viability, T/C [21]: 8.76% | viability, T/C [22]: 8.73% | viability, T/C [23]: 7.08% | viability, T/C [24]: 4.24% | viability, T/C [25]: 7.86% | viability, T/C [26]: 6.77% | viability, T/C [27]: 7.07% | viability, T/C [28]: 5.28% | viability, T/C [29]: 4.78% | viability, T/C [30]: 2.97% | viability, T/C [31]: 6.57% | viability, T/C [32]: 6.98% | viability, T/C [33]: 5.66% | viability, T/C [34]: 4.05% | viability, T/C [35]: 4.16% | viability, T/C [36]: 2.04%

C[C@@H](NC(=O)c1ncnc(N)c1Cl)c1ncc(C(=O)Nc2cc(C(F)(F)F)c(Cl)cn2)s1 + CCn1c(-c2cc(N3CCN(C)CC3)cnc2C(C)OC)c2c3cc(ccc31)-c1csc(n1)CC(NC(=O)C1CC1C)C(=O)N1CCCC(N1)C(=O)OCC(C)(C)C2
IC50 (second compound 0.000949 µM): 31.6 nM | IC50 (second compound 0.003 µM): < 31.6 nM | IC50 (second compound 0.00949 µM): < 31.6 nM | IC50 (second compound 0.03 µM): < 31.6 nM | IC50 (second compound 0.0949 µM): < 31.6 nM | IC50 (second compound 0.3 µM): < 31.6 nM | viability, T/C [1]: 41.3% | viability, T/C [2]: 46.5% | viability, T/C [3]: 55% | viability, T/C [4]: 51.5% | viability, T/C [5]: 45.7% | viability, T/C [6]: 38% | viability, T/C [7]: 22.9% | viability, T/C [8]: 24.4% | viability, T/C [9]: 26.9% | viability, T/C [10]: 28.8% | viability, T/C [11]: 24.8% | viability, T/C [12]: 24.8% | viability, T/C [13]: 15.6% | viability, T/C [14]: 16.8% | viability, T/C [15]: 17.4% | viability, T/C [16]: 18.4% | viability, T/C [17]: 18.9% | viability, T/C [18]: 18.6% | viability, T/C [19]: 14% | viability, T/C [20]: 14.2% | viability, T/C [21]: 16.5% | viability, T/C [22]: 16.2% | viability, T/C [23]: 15.4% | viability, T/C [24]: 12.7% | viability, T/C [25]: 10% | viability, T/C [26]: 11% | viability, T/C [27]: 10.4% | viability, T/C [28]: 11.8% | viability, T/C [29]: 16.1% | viability, T/C [30]: 10.8% | viability, T/C [31]: 9.44% | viability, T/C [32]: 10.4% | viability, T/C [33]: 11.2% | viability, T/C [34]: 11% | viability, T/C [35]: 13.1% | viability, T/C [36]: 11.4%
